Measured values published in publication PMC9100884, “Semi-Synthesis of N-Aryl Amide Analogs of Piperine from Piper nigrum and Evaluation of Their Antitrypanosomal, Antimalarial, and Anti-SARS-CoV-2 Main Protease Activities” (Molecules, 2022).
Read-outs that look alike come from different tables or passages of the source.

Key:
Vero E6 cell lines = assay: Cytotoxicity against Vero E6 cells (CellTiter 96 AQueous One); format: cell-based; conditions: for EC50: Chlorocebus sabaeus, read-out: EC50 ± S.E.M. Vero E6
Description: The cytotoxicity of the active compound was tested with Vero E6 cell lines. Each cell line was seeded at 1 × 10^4 cells per well into 96-well plates in growth medium and incubated overnight. The compounds were prepared at the concentrations of 2–500 µM in DMSO and added to the cells at the DMSO final concentrations of 0.1%. Cells were incubated for 48 h before analyzing the cell viability using CellTiter 96® AQueous One Solution Cell Proliferation Assay kit (Promega, Madison, WI, USA) according to the manufacturer’s protocol. The plate was read at the A450 by VICTORTM X3 microplate reader (PerkinElmer, Waltham, MA, USA). The EC50 values of the cells were calculated from nonlinear regression analysis. The results were reported as means and standard error of mean (S.E.M.) from three biological independent experiments.

Vero cells = assay: Cytotoxicity against Vero cells (sulforhodamine B assay); format: cell-based, African green monkey; conditions: for EC50: Chlorocebus sabaeus, 72 h, read-out: EC50 ± S.E.M. Vero; for cytotoxicity against Vero cells (in words): at the concentration of 100 μM
Description: Cytotoxicity test of selected analogues was performed against the African green monkey kidney fibroblast (Vero cells) obtained from Bioassay laboratory, BIOTEC, NSTDA, Thailand. The cells of less than 20 passages were maintained continuously in a MEM/EBSS medium supplemented with 10% heated fetal bovine serum (GE Healthcare, PAA Laboratories GmbH, Pasching, Aurstria), 2.2 g/L sodium bicarbonate (Emsure, ACS, Reag. Ph Eur, Darmstadt, Germany), and 1% sodium pyruvate (Sigma). Cytotoxicity was determined by sulforhodamine B assay. Briefly, 1.9 × 10^4 Vero cells were incubated with each compound at final concentrations of 0.0001–100 µM at 37 °C under 5% CO2. After incubation for 72 h, the cells were fixed with 10% trichloroacetic acid (Sigma) at 4 °C for 45 min, washed gently with tap-water and air-dried at room temperature for overnight. Then, the fixed protein was stained with 0.057% w/v of sulforhodamine B (Sigma). The excess dye was washed repeatedly with 1% v/v of acetic acid. The plates were allowed to air-dry at room temperature for overnight. Finally, the protein-bound dye in each well was dissolved with 50 µL of 10× Tris-based solution. The optical density (OD) was measured by a microplate reader at wavelength 510 nm. The EC50 value of each compound was determined from the dose-response curve. Data were shown as mean and standard error of the mean (S.E.M.) of three biological independent experiments.

[1] = tested on: T. brucei rhodesiense (STB900); assay: In vitro antitrypanosomal assay (resazurin); format: cell-based, Trypanosoma brucei rhodesiense; conditions: for IC50: Trypanosoma brucei, RHODESIENSE, read-out: IC50 ± S.E.M. Antitrypanosomal against T. brucei rhodesiense
Description: T. brucei rhodesiense (STB900) was maintained continuously in MEM/EBSS medium (pH 7.3) supplemented with 3 g/L sodium bicarbonate, 4.5 g/L glucose, 25 mM HEPES, 0.05 mM bathocuproinedisulfonic disodium salt, 1.5 mM L-cysteine, 1 mM hypoxanthine, 0.16 mM thymidine, 1 mM sodium pyruvate, 0.2 mM 2-mercaptoethanol, 1% MEM non-essential amino acid, and 15% v/v heated ([…]) FBS in a 5% CO2 incubator [47]. To evaluate the antitrypanosomal activity, trypanosome cells were seeded at 2 × 10^4 cells/well in 175 µL culture media/well and incubated with 25 µL of varying concentrations of each test compound in a 96-well plate under the culture conditions. […] Following 72 h incubation, 20 μL of resazurin was added to each well. The reaction was further incubated at 37 °C under 5% CO2 for 3 h to allow for the irreversible reduction of resazurin (violet color) to resorufin (pink color) by viable trypanosome cells. Fluorescence signals were measured by a spectrofluorometer using a 530-nm excitation wavelength and a 585-nm emission wavelength. […] The result for each compound was normalized using the control media for the overall background subtraction (0%), and untreated T. brucei rhodesiense with 0.1% DMSO was used as the 100% control.

3D7 P. falciparum = assay: In vitro antimalarial assay (SYBR Green I); format: cell-based; conditions: Plasmodium falciparum, read-out: IC50 ± S.E.M. Antimalarial against 3D7 P. falciparum
[2] = Vero C1008, cytotoxicity, Vero E6 cells, 48 h, 2–500 µM
[3] = cytotoxicity, Vero cells, sulforhodamine B, 0.0001–100 µM

SMILES	EC50 (Vero E6 cell lines; [2]) [µM]	EC50 (Vero cells; [3]) [µM]	IC50 ([1]; 72 h incubation, resazurin) [µM]	IC50 (3D7 P. falciparum; 3D7 strain, 48 h, SYBR Green I) [µM]	cytotoxicity against Vero cells (in words) (Vero cells)	EC50 (Vero E6 cell lines; Vero C1008, 48 h) [µM]	cytotoxicity against Vero E6 cell lines (in words) (Vero E6 cell lines; at the concentration of 500 μM)	EC50 (Vero cells; Vero) [µM]	IC50 ([1]; 72 h) [µM]	activity against T. brucei rhodesiense (in words) ([1]; at 100 μM)	IC50 (3D7 P. falciparum; 3D7, 48 h) [µM]
O=C(/C=C/C=C/c1ccc2c(c1)OCO2)Nc1ccccc1 [Compound 3, (2E,4E)-5-(benzo[d][1,3]dioxol-5-yl)-N-phenylpenta-2,4-dienamide]	> 500	> 100	53.5 ± 1.77	25.8 ± 1.56	–	–	–	–	–	–	–
COc1ccc(NC(=O)/C=C/C=C/c2ccc3c(c2)OCO3)c(OC)c1 [Compound 4, (2E,4E)-5-(benzo[d][1,3]dioxol-5-yl)-N-(2,4-dimethoxyphenyl)penta-2,4-dienamide]	> 500	> 100	19.9 ± 2.28	29.4 ± 3.54	–	–	–	–	–	–	–
COc1ccc(OC)c(NC(=O)/C=C/C=C/c2ccc3c(c2)OCO3)c1 [Compound 5, (2E,4E)-5-(benzo[d][1,3]dioxol-5-yl)-N-(2,5-dimethoxyphenyl)penta-2,4-dienamide]	> 500	> 100	15.5 ± 3.09	24.6 ± 1.91	no cytotoxicity	–	–	–	–	–	–
N=C(N)c1ccc(OCCCCCOc2ccc(C(=N)N)cc2)cc1 [Pentamidine, reference compound]	–	–	0.016 ± 0.002	–	–	–	–	–	–	–	–
O=C(O)/C=C/C=C/c1ccc2c(c1)OCO2 [Piperic acid (2), Piperic acid]	–	–	–	–	non-toxic	> 500	non-toxic	> 100	> 100	inactive	63.5 ± 2.43
O=C(/C=C/C=C/c1ccc2c(c1)OCO2)N1CCCCC1 [Piperine (1), Piperine]	132 ± 2.91	> 100	56.7 ± 0.98	61.2 ± 2.83	non-toxic	–	–	–	–	–	–
